Experimental findings from BindingDB's records for patent US20240190890 (Bristol-Myers Squibb, 2024) are described below.

Each structure is given as a SMILES string.

As a reminder, the IC50 is the concentration that gives 50% inhibition.

Sequence of MAP kinase-activated protein kinase 2 (P49137 whole entry): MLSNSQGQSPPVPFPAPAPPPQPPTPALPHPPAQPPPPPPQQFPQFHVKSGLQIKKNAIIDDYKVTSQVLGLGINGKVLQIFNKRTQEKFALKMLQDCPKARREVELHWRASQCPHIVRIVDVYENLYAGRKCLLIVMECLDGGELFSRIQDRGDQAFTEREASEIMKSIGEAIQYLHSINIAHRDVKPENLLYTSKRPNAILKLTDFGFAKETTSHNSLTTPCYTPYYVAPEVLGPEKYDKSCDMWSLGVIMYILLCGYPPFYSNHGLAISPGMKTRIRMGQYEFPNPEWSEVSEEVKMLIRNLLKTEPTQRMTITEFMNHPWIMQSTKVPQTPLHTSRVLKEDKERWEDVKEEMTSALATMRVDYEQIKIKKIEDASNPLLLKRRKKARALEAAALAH

In this test the target is MAP kinase-activated protein kinase 2 (Homo sapiens, UniProt P49137). Briefly: Not found. As for the experimental part:
Briefly, 10× stock solutions of MK2 (PV3317, from Life Technologies), 1.13X ATP (AS001A), and Sox conjugated peptide substrate, S/T3-Sox, (KZN1031) were prepared in 1× kinase reaction buffer consisting of 20 mM Tris, pH 7.5, 5 mM MgCl2, 1 mM EGTA, 5 mM β-glycerophosphate, 5% glycerol (10× stock, KB001A) and 0.2 mM DTT (DS001A). Enzyme solution (5 μL) was added to each of DMSO ([…]) or serially diluted test compounds prepared in DMSO in a Corning (#3574) 384-well, white, non-binding surface microtiter plate (Corning, NY). Kinase reactions were started with the addition of 45 μL of the ATP-peptide substrate S/T3-Sox mix and monitored every 71 seconds for 120 minutes at λex360/λem485 in a Synergy H4 plate reader from BioTek (Winooski, VT) at room temperature.
Take `CCOCc1cnc(Cl)nc1-c1ccc2c(ccc3sc4c(c32)NC[C@@H](C)NC4=O)n1` [US20240190890, Compound I-3]: the IC50 turned out to be 107 nM. Take `C=Cc1nc(-c2ccc3c(ccc4sc5c(c43)NC[C@@H](C)NC5=O)n2)cc(N2CCN(C)CC2)n1` [US20240190890, Compound I-18]: the half-maximal inhibitory concentration (IC50) amounted to 4 nM. Regarding `C=Cc1cc(-c2ccc3c(ccc4sc5c(c43)NC[C@@H](C)NC5=O)n2)cc(C=C)n1` [US20240190890, Compound I-80], the 50% inhibitory concentration (IC50) stood at 574 nM. The same measure for `C=C(CN1CCOCC1)c1cc(-c2ccc3c(ccc4sc5c(c43)NC[C@@H](C)NC5=O)n2)ncn1` [US20240190890, Compound I-139]: 2 nM. Take `C=Cc1cc(-c2ccc3c(ccc4sc5c(c43)NC[C@@H](C)NC5=O)n2)cc(N2CC(C)OC(C)C2)n1` (stereo not given in full) [US20240190890, Compound I-201]: the IC50 came out at 73 nM.
